# Test results from patent US20170114093A1, “Methods of Treatment and Prevention of Disease by Arginine-rich Compositions that Induce Cytoprotection and Neuroprotection” (priority 2015, published 2017).
# “Also recorded” adds a separate entry of the source.
# What was measured:
# [1] = system: primary rat cortical neurons; assay: Oxygen glucose deprivation (OGD, 90 min) of primary neuronal cultures, cell viability by MTT reduction; type: cell-based; conditions: for level of protection from OGD, compared with Compound 4: 90 min OGD; for protection of cortical rat neurons from the impact of OGD (cell viability): pre-incubation 30 min before 90 min OGD, MTT
# Protocol: FIGS. 1 and 2 are histograms showing the cell viability of primary rat cortical neurons that had been exposed to ninety (90) minutes oxygen glucose deprivation. Pre-incubation of an arginine-rich polypeptide [RRRRRRRRR (SEQ ID: 4)]
# Dissociated primary neuronal cell cultures were prepared from rat brains at 37° C. in a humidified atmosphere containing 5% CO2 and […] and grown to confluence in glucose-containing media. Indicated compounds were applied thirty (30) minutes before cultures were placed in an environment of oxygen glucose deprivation (OGD). OGD was achieved using glucose-free media and a humidified atmosphere containing 5% CO2 and 95% N2. OGD was continued for ninety (90) minutes and terminated by return to baseline conditions with glucose and O2 restored. Reduction of 3-(4,5-dimethyl-2-thiazolyl)-2,5-diphenyltetrazolium bromide (MTT) by cellular dehydrogenases measured mitochondrial activity and cell health. […] This model is a dissociated cell preparation, therefore vasculature is absent, therefore the activity of Compound 4 (SEQ ID NO: 4), an inventive Arginine rich polypeptide, is shown to be independent of changes to vascular tone and indicates protection from a novel mechanism of action.
# SAPK/JNK = assay: Western blot of phospho-SAPK/JNK (cell death signaling) in OGD-treated primary neuronal cultures; type: cell-based, rat; conditions: after OGD
# From the text: JNK signaling is widely considered to be an indicator of cell death signaling.
# Dissociated primary neuronal cell cultures treated in the same manner as indicated in Example 2 were collected and their cells lysed. Cellular proteins were precipitated and denatured for immunohistochemical analysis by Western Blot. Phospho-SAPK/JNK ([…]) antibody detects endogenous levels of p46 and p54 SAPK/JNK dually phosphorylated at threonine 183 and tyrosine 185. Levels of The stress-activated protein kinase/Jun-amino-terminal kinase SAPK/JNK are widely considered to be molecular sequelae of the activation of cell death pathways that lead to apoptosis.
compound,measurement,setting,value
C[C@@H]([C@@H](O)c1ccc(O)cc1)N1CCC(O)(c2ccccc2)CC1 [CP 101 606],"level of protection from OGD, compared with Compound 4",[1]; 10 μM,comparable
same,"level of JNK cell death signaling, compared with Compound 4 2 μM",SAPK/JNK; 10 μM,comparable
C[C@H](NC(c1cccc2[nH]c(=O)c(=O)[nH]c12)P(=O)(O)O)c1ccc(Br)cc1 (some centres unmarked) [NVPAAM077],"level of protection from OGD, compared with Compound 4",[1]; 100 nM,comparable
same,"level of JNK cell death signaling, compared with Compound 4 2 μM",SAPK/JNK; 100 nM,comparable
CCRRRRRRR [Control peptide; cysteine-arginine peptide of the kind claimed in WO2013158739],protection of cortical rat neurons from the impact of OGD (cell viability),[1]; 2 μM,no significant neuroprotection; also recorded: no significant neuroprotective effect
same,protection of cortical rat neurons from the impact of OGD (cell viability),"[1]; 2 μM, listed as ccrrrrrrr",no significant neuroprotection; also recorded: no significant neuroprotective effect
same,protection of cortical rat neurons from the impact of OGD (cell viability),[1]; 10 μM,no significant neuroprotection; also recorded: no significant neuroprotective effect
same,protection of cortical rat neurons from the impact of OGD (cell viability),"[1]; 10 μM, listed as ccrrrrrrr",no significant neuroprotection; also recorded: no significant neuroprotective effect
RRRRRRRRR (cell penetrating peptide) [Compound 4],protection of cortical rat neurons from the impact of OGD (cell viability),[1]; 2 μM,significant protection
same,protection of cortical rat neurons from the impact of OGD (cell viability),[1]; 10 μM,significant protection
same,p54 and p48 JNK cell death signaling (Western blot),"SAPK/JNK; 2 μM, p<0.05, n=3",significantly suppressed
